Measurements published in patent publication US9249115B2, “N,N1 substituted piperazines having combined antiaggregant, anticoagulant and vasodilatory activity, and method for producing same” (Vertex Closed Joint Stock Company, priority 2011, dated 2016).

Experiments:
[1] = test system: Collagen-induced thrombocyte aggregation; assay: Collagen-induced thrombocyte aggregation, donor human thrombocyte enriched plasm; assay type: cell-based; conditions: collagen inductor; for MA, %: human thrombocyte plasm; for inhibition at 500 µM / inhibition at 1250 µM / inhibition at 2500 µM / inhibition at 5000 µM: Homo sapiens, read-out: (MA0-MAx): MA0 * 100%
Protocol: (§1) The study of antiaggregant and anticoagulant properties of N,N′-substituted piperazines on the sample of donor human blood. The blood was collected by donor ulnar vein punction with dry sharp needle without syringe. The administration of drugs that influence on thrombocyte function was cancelled in 7÷10 days before the experiment.
(§2) In graduated plastic centrifuge tube 1 ml of 3.8% basic trisodium citrate solution with pH=7.4 was placed. The ulnar vein was punctuated, the freely effluent blood was collected up to 10 ml mark, the mixture was instantly stirred to prevent air bubbles appearance. The collected and stabilized blood was split in two 5 ml portions in two tubes.
(§3) To obtain thrombocyte enriched plasm the stabilized blood was spinned at 1000 rpm (150 g) for 8 min at room temperature. The repeated spinning of the blood at 3200 rpm (2300 g) for 20 min at 22° C. yielded thrombocyte depleted plasm.
(§4) The study of anticoagulant activity was done within 2 h after thrombocyte enriched plasm obtaining. The plasm was normalized to achieve thrombocyte concentration of 200-250×10^9/L by addition of thrombocyte-free plasm. The concentration of thrombocytes was measured on SOLAR AR 2110 analyzer.
(§5) Antiaggregant properties of N,N′-substituted piperazines were evaluated by their influence on thrombocyte aggregation in tests with ADP-, collagen- and ristocetin-induced aggregation. To dissolve N,N′-substituted piperazines and to dilute reagents Tris-HCl-buffer with pH=7.4 was used.
(§6) As the general characteristic of thrombocyte aggregation activity the maximum amplitude (MA) of aggregation was taken on. That is the peak value of transmittance coefficient of the sample after aggregation agent introduction expressed in % relative to the transmittance of thrombocyte-free plasm. The response was registered on ascending linear segment of aggregation curve for 16 s.
(§7) The measurements were done using 4-channel CHRONO-LOG 490-4D analyzer (CHRONO-LOG, USA). The temperature in the cell was 37° C., the spinning speed of magnetic stirrer was 1200 rpm.
(§8) In a cuvette 0.5 ml of N,N′-substituted piperazine solution was placed, then 0.4 ml of normalized thrombocyte plasm was added. The mixture was stirred and incubated at 37° C. for 5 min. The cuvette was placed in aggregometer, then 0.05 ml of aggregation inductor solution was added (ADP or collagen or ristocetin). Thrombocyte aggregation was measured for 3 min.
In collagen-induced thrombocyte aggregation test CHRONO-PAR COLLAGEN reagent (CHRONO-LOG, USA) was diluted with buffer solution until collagen concentration reached 10 µg/ml.

[2] = test system: ADP-induced thrombocyte aggregation; assay: ADP-induced thrombocyte aggregation, donor human thrombocyte enriched plasm; assay type: cell-based; conditions: ADP inductor; for MA, %: human thrombocyte plasm; for inhibition at 1250 µM / inhibition at 2500 µM / inhibition at 5000 µM / inhibition at 200 µM / inhibition at 500 µM: Homo sapiens, read-out: (MA0-MAx): MA0 * 100%
Protocol: as §1, §2, §3, §4, §5, §6, §7, §8
ADP-induced reversible thrombocyte aggregation test utilized CHRONO-PAR ADP reagent (CHRONO-LOG, USA) with 10 mol concentration. Primary (reversible) thrombocyte aggregation was evaluated by the response on addition of ADP threshold dose (ADP concentration is 1 mol) to plasm.

[3] = test system: experimental photothrombosis; assay: Experimental photothrombosis model, arterial blood velocity; assay type: in vivo, Wistar male rats
Protocol: The studies were done on Wistar male rats with mass of 230±30 g (laboratory animals nursery “Rappolovo”, RAMS). The animals were kept with unlimited food (standard ration for laboratory rats K-120 by <<Inform-korm>>, Russia) and water allowance. […]
Thrombosis modeling: the drugs were introduced into left femoral vein, in 50 min afterwards 1 ml of Bengal rose A photosensitizer (Acros Organics, USA) solution was introduced with dose of 17 mg/kg [Boselli 2007, Petrischev 2009]. Then the incision of internal surface of animal right thigh about 2 cm in length was made. The section of the femoral vein about 5 mm in length was released from surrounding tissues and separated from neurovascular bundle. Beneath this section of the vein the black non-transparent plastic strip 3 mm in width was laid to screen off the vein and surrounding tissues from radiation. The irradiation was done using diode laser <<DPSS-laser>> (Diode Pumped Solid State Laser, South Korea) with 532 nm wavelength and 60 mW power. The area of irradiation was 1 mm^2, exposing time was 40 min. The blood flow in femoral artery was measured by high frequency Doppler ultrasonography method (<<Minimax-Doppler-K>> apparatus, frequency of sensor was 20 MHz). The blood velocity alteration due to irradiation was measured (Table 9).

[4] = test system: Ristocetin-induced thrombocyte aggregation; assay: Ristocetin-induced thrombocyte aggregation, donor human thrombocyte enriched plasm; assay type: cell-based; conditions: ristocetin inductor; for MA (60 c), %: amplitude at 60 s
Protocol: as §1, §2, §3, §4, §5, §6, §7, §8
To study ristocetin-induced thrombocyte aggregation CHRONO-PAR RISTOCETIN reagent (CHRONO-LOG, USA) was diluted with buffer solution until ristocetin concentration reached 12 mg/ml. Thrombocyte aggregation amplitude was measured in 60 s after the beginning of the reaction.

[5] = test system: thrombocyte depleted plasm coagulation; assay: Activated partial thromboplastin time (APTT), anticoagulant properties; assay type: biochemical, human; conditions: for APTT: thrombocyte depleted plasm
Protocol: as §1, §2, §3
To study anticoagulant properties of N,N′-substituted piperazines activated partial thromboplastin time (APTT) was measured. That is the ability of N,N′-substituted piperazines to increase thrombocyte depleted plasm coagulation time compared to the ability of control sample. The set of reagents for APTT determination (Russian Scientific Research Institute of Hematology and Transfusiology Ministry of Health of Russian Federation by Technical Regulation 9398-214-01966456-99) and COAG-A-MATE® XM coagulometer (ORGANON TEKNIKA, USA) were used.
The solutions of N,N′-substituted piperazines were mixed with thrombocyte depleted plasm at 1:1 ratio, then 0.1 ml of APTT reagent was added, the mixture was incubated in the cuvette for 5 min at 37° C., then 0.1 ml of 0.277% CaCl2 solution was added. The time of coagulation (in seconds) was measured.

SMILES	MA, % ([1]; 0.5 mmol/L) [%]	MA, % ([1]; 1.25 mmol/L) [%]	MA, % ([1]; 2.5 mmol/L) [%]	MA, % ([1]; 5.0 mmol/L) [%]	inhibition at 500 µM ([1]; 0.5 mmol/L) [%]	inhibition at 1250 µM ([1]; 1.25 mmol/L) [%]	inhibition at 2500 µM ([1]; 2.5 mmol/L) [%]	inhibition at 5000 µM ([1]; 5.0 mmol/L) [%]	MA, % ([2]; 1.25 mmol/L) [%]	MA, % ([2]; 2.50 mmol/L) [%]	MA, % ([2]; 5.0 mmol/L) [%]	inhibition at 1250 µM ([2]; 1.25 mmol/L) [%]	inhibition at 2500 µM ([2]; 2.50 mmol/L) [%]	inhibition at 5000 µM ([2]; 5.0 mmol/L) [%]	(MAx-MA0): MA0 * 100% ([4]; 0.5 mmol/L) [%]	MA (60 c), % ([4]; 0.5 mmol/L) [%]	(MAx-MA0): MA0 * 100% (Ozagrel: (MA0-MAx): MA0 * 100%) ([4]; 1.25 mmol/L) [%]	MA (60 c), % ([4]; 1.25 mmol/L) [%]	(MAx-MA0): MA0 * 100% (Ozagrel: (MA0-MAx): MA0 * 100%) ([4]; 2.5 mmol/L) [%]	MA (60 c), % ([4]; 2.5 mmol/L) [%]	other results
COc1ccc(C(=O)N2CCN(C(=N)NC(=N)N)CC2)c(OC)c1OC.Cl [Example 2, N-carbamidoyl-4-(2,3,4-trimethoxybenzoyl)piperazine-1-carboximidamide hydrochloride]	73.0 ± 7.3	65.10 ± 1.8	58.7 ± 2.9	24.1 ± 0.8	7.9	17.9	26	69.6	15.0 ± 1.8	8.7 ± 2.2	3.1 ± 0.8	21.1	55	84.2							
COc1ccc(CN2CCN(CC(O)CS(=O)(=O)[O-])CC2)c(OC)c1OC.[Na+] (centres unmarked) [Example 3, 3-(1-(2,3,4-trimethoxybenzyl)piperazine-4-yl)-2-hydroxy-1-propanesulfonic acid sodium salt]															6.1	63.0 ± 6.1	7.5	62.1 ± 8.9	24.0	51.0 ± 7.2	V, cm/s (arterial blood velocity) ([3]; 0.01 mmol/kg, 0 min of irradiation): 7.1 ± 3.2 cm/s; V, cm/s (arterial blood velocity) ([3]; 0.01 mmol/kg, 10 min of irradiation): 7.00 ± 2.4 cm/s; V, cm/s (arterial blood velocity) ([3]; 0.01 mmol/kg, 20 min of irradiation): 7.5 ± 2.2 cm/s; V, cm/s (arterial blood velocity) ([3]; 0.01 mmol/kg, 30 min of irradiation): 6.4 ± 1.9 cm/s; V, cm/s (arterial blood velocity) ([3]; 0.01 mmol/kg, 40 min of irradiation): 6.6 ± 1.5 cm/s; V, cm/s (arterial blood velocity) ([3]; 0.025 mmol/kg, 0 min of irradiation): 8.5 ± 1.7 cm/s; V, cm/s (arterial blood velocity) ([3]; 0.025 mmol/kg, 10 min of irradiation): 8.4 ± 1.2 cm/s; V, cm/s (arterial blood velocity) ([3]; 0.025 mmol/kg, 20 min of irradiation): 8.4 ± 3.0 cm/s; V, cm/s (arterial blood velocity) ([3]; 0.025 mmol/kg, 30 min of irradiation): 8.9 ± 1.6 cm/s; V, cm/s (arterial blood velocity) ([3]; 0.025 mmol/kg, 40 min of irradiation): 8.5 ± 1.2 cm/s; (MAx-MA0): MA0 * 100% (Ozagrel: (MA0-MAx): MA0 * 100%) ([4]; 5.0 mmol/L): 77.5%; MA (60 c), % ([4]; 5.0 mmol/L): 25.1 ± 3.2%
COc1ccc(CN2CCN(C(=N)NC(=N)N)CC2)c(OC)c1OC.Cl [Example 4, N-carbamidoyl-4-(2,3,4-trimethoxybenzyl)piperazine-1-carboximidamide hydrochloride]		59.0 ± 5.9	52.2 ± 7.9	26.2 ± 3.5		22.1	31	65.4	10.6 ± 2.0	5.7 ± 1.1	1.7 ± 0.5	42.1	68.9	90.7							
COc1ccc(CN2CCN(C(=N)N)CC2)c(OC)c1OC.O=C(O)/C=C/C(=O)O [Example 8, 4-(2,3,4-trimethoxybenzyl)piperazine-1-carboximidamide fumarate]	72.3 ± 6.3	63.5 ± 9.8	58.5 ± 9.6	51.3 ± 7.9	5.2	16.8	23.3	32.8	8.5 ± 2.8	2.5 ± 1.6		55.3	86.8		16.1	50.7 ± 8.7	20.5	48.0 ± 5.8	35.1	39.2 ± 11.6	MA (60 c), % ([4]; 0.2 mmol/L): 60.4 ± 9.1%; (MAx-MA0): MA0 * 100% (Ozagrel: (MA0-MAx): MA0 * 100%) ([4]; 5.0 mmol/L): 44.7%; MA (60 c), % ([4]; 5.0 mmol/L): 33.4 ± 9.9%; MA, % ([2]; 0.2 mmol/L): 18.5 ± 2.8%; MA, % ([2]; 0.5 mmol/L): 14.3 ± 3.0%; inhibition at 200 µM ([2]; 0.2 mmol/L): 2.6%; inhibition at 500 µM ([2]; 0.5 mmol/L): 24.7%; (APTTx-APTT0): APTT0 * 100% ([5]; 1.7 mmol/L): 27.0%; APTT ([5]; 1.7 mmol/L): 61.1 ± 4.4 s; (APTTx-APTT0): APTT0 * 100% ([5]; 2.5 mmol/L): 56.5%; APTT ([5]; 2.5 mmol/L): 71.3 ± 5.2 s; (APTTx-APTT0): APTT0 * 100% ([5]; 4.1 mmol/L): 89.4%; APTT ([5]; 4.1 mmol/L): 91.1 ± 9.9 s; (APTTx-APTT0): APTT0 * 100% ([5]; 8.3 mmol/L): 201.5%; APTT ([5]; 8.3 mmol/L): 145.0 ± 7.3 s
COc1cc(CN2CCN(C(=N)N)CC2)ccc1OCC(C)C.Cl [Example 12, 4-(4-(2-methylpropyloxy)-3-methoxybenzyl)piperazine-1-carboximidamide hydrochloride]	71.9 ± 5.1	63.1 ± 9.1	55.4 ± 9.0	51.0 ± 7.1	6.5	16.8	28	35	5.1 ± 2.2	1.7 ± 0.3		67.5	89.2								MA, % ([2]; 0.2 mmol/L): 14.1 ± 2.0%; MA, % ([2]; 0.5 mmol/L): 11.2 ± 3.3%; inhibition at 200 µM ([2]; 0.2 mmol/L): 10.2%; inhibition at 500 µM ([2]; 0.5 mmol/L): 28.7%; (APTTx-APTT0): APTT0 * 100% ([5]; 1.7 mmol/L): 9.4%; APTT ([5]; 1.7 mmol/L): 50.1 ± 4.0 s; (APTTx-APTT0): APTT0 * 100% ([5]; 2.5 mmol/L): 38.0%; APTT ([5]; 2.5 mmol/L): 63.2 ± 5.1 s; (APTTx-APTT0): APTT0 * 100% ([5]; 4.1 mmol/L): 53.3%; APTT ([5]; 4.1 mmol/L): 70.2 ± 3.2 s; (APTTx-APTT0): APTT0 * 100% ([5]; 8.3 mmol/L): 205.7%; APTT ([5]; 8.3 mmol/L): 140.0 ± 4.7 s
